The compounds below were run against T1, GlyT1 transporter (Homo sapiens, UniProt P48067) (assay: GlyT1 assay: 3H-glycine uptake into SK-N-MC cells (Cytostar-T format)). Details: glycine uptake in human SK-N-MC cells endogenously expressing GlyT1; 500 nM glycine, 1% DMSO, signal recorded over 60 min.
T1 construct: endogenously expressing the GlyT1 transporter; host or cells: SK-N-MC human neuroblastoma cells
T1 sequence (P48067 1-706): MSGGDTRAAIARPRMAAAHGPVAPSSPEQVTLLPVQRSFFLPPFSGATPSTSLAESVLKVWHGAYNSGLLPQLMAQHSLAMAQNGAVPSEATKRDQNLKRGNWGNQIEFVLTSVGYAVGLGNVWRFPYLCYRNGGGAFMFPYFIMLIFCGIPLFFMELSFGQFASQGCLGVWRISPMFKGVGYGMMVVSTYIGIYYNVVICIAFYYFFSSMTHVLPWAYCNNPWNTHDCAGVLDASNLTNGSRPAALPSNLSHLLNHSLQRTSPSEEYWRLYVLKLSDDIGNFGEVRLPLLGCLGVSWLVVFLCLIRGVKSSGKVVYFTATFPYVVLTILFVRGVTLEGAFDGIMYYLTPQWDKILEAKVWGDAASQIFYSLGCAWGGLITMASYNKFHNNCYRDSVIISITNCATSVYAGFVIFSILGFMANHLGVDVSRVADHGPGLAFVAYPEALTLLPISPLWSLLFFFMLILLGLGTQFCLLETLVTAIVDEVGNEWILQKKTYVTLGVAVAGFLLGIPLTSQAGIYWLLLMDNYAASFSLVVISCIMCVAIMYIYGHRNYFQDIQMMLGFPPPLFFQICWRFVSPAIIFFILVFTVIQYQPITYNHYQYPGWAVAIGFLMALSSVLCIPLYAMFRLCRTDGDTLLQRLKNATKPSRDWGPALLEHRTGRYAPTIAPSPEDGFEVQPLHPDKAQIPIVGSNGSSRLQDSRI
Type: cell-based
Procedure, shortened: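 Endogenous GlyT1 in human SK-N-MC cells, confluent after 16-18 h, in HBSS with 5 mM alanine. Compounds preincubated about 5-10 min, then 500 nM glycine (half ³H) added, 1% DMSO. Scintillation-proximity uptake recorded kinetically over 60 min; IC50 from linear-range slopes over 8 concentrations, nonspecific uptake defined with 10 μM RG-1678.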

Row | SMILES | IC50 [nM]
1 | Cc1nc(C23CC2CN(C(=O)c2cc(S(C)(=O)=O)ccc2O[C@@H](C)C(F)(F)F)C3)no1 (mixture of isomers) [Example 6, [5-Methanesulfonyl-2-(2,2,2-trifluoro-1-methyl-ethoxy)-phenyl]-[1-(5-methyl-[1,2,4]oxadiazol-3-yl)-3-aza-bicyclo[3.1.0]hex-3-yl]-methanone] | 16.5
2 | C[C@@H](Oc1ccc(S(C)(=O)=O)cc1C(=O)N1CC2CC2(c2noc(C3CC3)n2)C1)C(F)(F)F (single isomer, unassigned) [Example 45, [1-(5-Cyclopropyl-[1,2,4]oxadiazol-3-yl)-3-aza-bicyclo[3.1.0]hex-3-yl]-[5-methanesulfonyl-2-(2,2,2-trifluoro-1-methyl-ethoxy)-phenyl]-methanone] | 2
3 | C[C@H](Oc1ccc(S(C)(=O)=O)cc1C(=O)N1CC2CC2(c2cc(C(F)(F)F)on2)C1)C(F)(F)F (single isomer, unassigned) [Example 47, [5-Methanesulfonyl-2-(2,2,2-trifluoro-1-methyl-ethoxy)-phenyl]-[1-(5-trifluoromethyl-isoxazol-3-yl)-3-aza-bicyclo[3.1.0]hex-3-yl]-methanone] | 7
4 | C[C@H](Oc1ccc(S(C)(=O)=O)cc1C(=O)N1CC2CC2(c2noc(C3(C)CC3)n2)C1)C(F)(F)F (mixture of isomers) [Example 134, [5-Methanesulfonyl-2-(2,2,2-trifluoro-1-methyl-ethoxy)-phenyl]-{1-[5-(1-methyl-cyclopropyl)-[1,2,4]oxadiazol-3-yl]-3-aza-bicyclo[3.1.0]hex-3-yl}-methanone] | 8
5 | COC1(c2nc(C34CC3CN(C(=O)c3cc(S(C)(=O)=O)ccc3O[C@H](C)C(F)(F)F)C4)no2)CC1 (single isomer, unassigned) [Example 120, [5-Methanesulfonyl-2-(2,2,2-trifluoro-1-methyl-ethoxy)-phenyl]-{1-[5-(1-methoxy-cyclopropyl)-[1,2,4]oxadiazol-3-yl]-3-aza-bicyclo[3.1.0]hex-3-yl}-methanone] | 6
6 | C[C@@H](Oc1ccc(S(C)(=O)=O)cc1C(=O)N1CC2CC2(c2nc(C3CC3)no2)C1)C(F)(F)F (mixture of isomers) [Example 145, [1-(3-Cyclopropyl-[1,2,4]oxadiazol-5-yl)-3-aza-bicyclo[3.1.0]hex-3-yl]-[5-methanesulfonyl-2-(2,2,2-trifluoro-1-methyl-ethoxy)-phenyl]-methanone] | 7
7 | C[C@H](Oc1ccc(S(C)(=O)=O)cc1C(=O)N1CC2CC2(c2nnc(C3(C(F)(F)F)CC3)o2)C1)C(F)(F)F (single isomer, unassigned) [Example 153, [5-Methanesulfonyl-2-(2,2,2-trifluoro-1-methyl-ethoxy)-phenyl]-{1-[5-(1-trifluoromethyl-cyclopropyl)-[1,3,4]oxadiazol-2-yl]-3-aza-bicyclo[3.1.0]hex-3-yl}-methanone] | 1200
8 | C[C@H](Oc1ccc(S(C)(=O)=O)cc1C(=O)N1CC2CC2(c2cc(C(F)(F)F)on2)C1)C(F)(F)F (single isomer, unassigned) [Example 48, [5-Methanesulfonyl-2-(2,2,2-trifluoro-1-methyl-ethoxy)-phenyl]-[1-(5-trifluoromethyl-isoxazol-3-yl)-3-aza-bicyclo[3.1.0]hex-3-yl]-methanone] | 886
9 | C[C@@H](Oc1ccc(S(C)(=O)=O)cc1C(=O)N1CC2CC2(c2nccc(C3CC3)n2)C1)C(F)(F)F (mixture of isomers) [Example 79, [1-(4-Cyclopropyl-pyrimidin-2-yl)-3-aza-bicyclo[3.1.0]hex-3-yl]-[5-methanesulfonyl-2-(2,2,2-trifluoro-1-methyl-ethoxy)-phenyl]-methanone] | 6
10 | CCS(=O)(=O)c1ccc(O[C@@H](C)C(F)(F)F)c(C(=O)N2CC3CC3(c3cc(C(F)(F)F)on3)C2)c1 (mixture of isomers) [Example 102, [5-Ethanesulfonyl-2-(2,2,2-trifluoro-1-methyl-ethoxy)-phenyl]-[1-(5-trifluoromethyl-isoxazol-3-yl)-3-aza-bicyclo[3.1.0]hex-3-yl]-methanone] | 18
11 | C[C@@H](Oc1ccc(S(C)(=O)=O)cc1C(=O)N1CC2CC2(c2ncc(C(F)(F)F)o2)C1)C(F)(F)F (mixture of isomers) [Example 128, [5-Methanesulfonyl-2-(2,2,2-trifluoro-1-methyl-ethoxy)-phenyl]-[1-(5-trifluoromethyl-oxazol-2-yl)-3-aza-bicyclo[3.1.0]hex-3-yl]-methanone] | 6
12 | C[C@H](Oc1ccc(S(C)(=O)=O)cc1C(=O)N1CC2CC2(c2csc(C(F)(F)F)n2)C1)C(F)(F)F (single isomer, unassigned) [Example 27, [5-Methanesulfonyl-2-(2,2,2-trifluoro-1-methyl-ethoxy)-phenyl]-[1-(2-trifluoromethyl-thiazol-4-yl)-3-aza-bicyclo[3.1.0]hex-3-yl]-methanone] | 5
13 | Cc1cnc(C23CC2CN(C(=O)c2cc(S(C)(=O)=O)ccc2O[C@@H](C)C(F)(F)F)C3)o1 (mixture of isomers) [Example 21, [5-Methanesulfonyl-2-(2,2,2-trifluoro-1-methyl-ethoxy)-phenyl]-[1-(5-methyl-oxazol-2-yl)-3-aza-bicyclo[3.1.0]hex-3-yl]-methanone] | 21
14 | CCS(=O)(=O)c1ccc(O[C@H](C)C(F)(F)F)c(C(=O)N2CC3CC3(c3cc(C(F)(F)F)on3)C2)c1 (mixture of isomers) [Example 105, [5-Ethanesulfonyl-2-(2,2,2-trifluoro-1-methyl-ethoxy)-phenyl]-[1-(5-trifluoromethyl-isoxazol-3-yl)-3-aza-bicyclo[3.1.0]hex-3-yl]-methanone] | 7
15 | C[C@@H](Oc1ccc(S(C)(=O)=O)cc1C(=O)N1CC2CC2(c2csc(C(F)(F)F)n2)C1)C(F)(F)F (single isomer, unassigned) [Example 30, [5-Methanesulfonyl-2-(2,2,2-trifluoro-1-methyl-ethoxy)-phenyl]-[1-(2-trifluoromethyl-thiazol-4-yl)-3-aza-bicyclo[3.1.0]hex-3-yl]-methanone] | 5
16 | C[C@H](Oc1ccc(S(C)(=O)=O)cc1C(=O)N1CC2CC2(c2ncc(C(F)(F)F)o2)C1)C(F)(F)F (single isomer, unassigned) [Example 132, [5-Methanesulfonyl-2-(2,2,2-trifluoro-1-methyl-ethoxy)-phenyl]-[1-(5-trifluoromethyl-oxazol-2-yl)-3-aza-bicyclo[3.1.0]hex-3-yl]-methanone] | 3
17 | CCS(=O)(=O)c1ccc(O[C@@H](C)C(F)(F)F)c(C(=O)N2CC3CC3(c3nccc(C(F)(F)F)n3)C2)c1 (single isomer, unassigned) [Example 75, [5-Ethanesulfonyl-2-(2,2,2-trifluoro-1-methyl-ethoxy)-phenyl]-[1-(4-trifluoromethyl-pyrimidin-2-yl)-3-aza-bicyclo[3.1.0]hex-3-yl]-methanone] | 110
18 | Cc1cnc(C23CC2CN(C(=O)c2cc(S(C)(=O)=O)ccc2O[C@@H](C)C(F)(F)F)C3)o1 (single isomer, unassigned) [Example 22, [5-Methanesulfonyl-2-(2,2,2-trifluoro-1-methyl-ethoxy)-phenyl]-[1-(5-methyl-oxazol-2-yl)-3-aza-bicyclo[3.1.0]hex-3-yl]-methanone] | 5
19 | C[C@H](Oc1ccc(S(C)(=O)=O)cc1C(=O)N1CC2CC2(c2noc(C(F)(F)F)n2)C1)C(F)(F)F (single isomer, unassigned) [Example 3, [5-Methanesulfonyl-2-(2,2,2-trifluoro-1-methyl-ethoxy)-phenyl]-[1-(5-trifluoromethyl-[1,2,4]oxadiazol-3-yl)-3-aza-bicyclo[3.1.0]hex-3-yl]-methanone] | 1020
20 | C[C@H](Oc1ccc(S(C)(=O)=O)cc1C(=O)N1CC2CC2(C2=NCC(C(F)(F)F)O2)C1)C(F)(F)F (mixture of isomers) [Example 57, [5-Methanesulfonyl-2-(2,2,2-trifluoro-1-methyl-ethoxy)-phenyl]-[1-(5-trifluoromethyl-4,5-dihydro-oxazol-2-yl)-3-aza-bicyclo[3.1.0]hexyl-3-yl]-methanone] | 354
21 | C[C@H](Oc1ccc(S(C)(=O)=O)cc1C(=O)N1CC2CC2(c2nccc(C(F)(F)F)n2)C1)C(F)(F)F (mixture of isomers) [Example 15, [5-Methanesulfonyl-2-(2,2,2-trifluoro-1-methyl-ethoxy)-phenyl]-[1-(4-trifluoromethyl-pyrimidin-2-yl)-3-aza-bicyclo[3.1.0]hex-3-yl]-methanone] | 14
22 | C[C@@H](Oc1ccc(S(C)(=O)=O)cc1C(=O)N1CC2CC2(c2noc(C(F)(F)F)n2)C1)C(F)(F)F (single isomer, unassigned) [Example 4, [5-Methanesulfonyl-2-(2,2,2-trifluoro-1-methyl-ethoxy)-phenyl]-[1-(5-trifluoromethyl-[1,2,4]oxadiazol-3-yl)-3-aza-bicyclo[3.1.0]hex-3-yl]-methanone] | 9

— patent US9012489B2, “Phenyl-3-aza-bicyclo[3.1.0]hex-3-yl-methanones and the use thereof as medicament” (Boehringer Ingelheim International GmbH, priority 2011, dated 2015)
